Laboratory results from US20110124523A1, “High Throughput Method for Detecting Apoptosis of Embryonic Stages of Metazoan Helminthic Parasites” (INSTITUTE OF LIFE SCIENCES, priority 2009, published 2011).
“And” between values parts separate entries of the source, which are not always exact repeats. Equal entries are not always repeated.

Tests used:
[1] = tested on: embryonic stages of S. digitata; experiment: Externalization of phosphatidyl serine, Annexin-V-PE staining, flow cytometry; format: cell-based, Setaria digitata; conditions: for GMI (Geometric Mean Intensity) of Fluorescence, Annexin-V-PE Staining: 24 hr; for externalization of Phosphatidyl serine (result in words): Microfilariae and eggs, Annexin-V-PE staining
Experimental: Adult female filarial worms Setaria digitata were collected from the peritoneum of cattle, slaughtered at a nearby abattoir in sterile Hanks Balanced Salt Solution (HBSS) medium (Sigma H 2387-1L) and transported to the laboratory in a sterile container. The medium containing 1% glucose (Sigma G 7528), Penicillin 100 units/ml, Streptomycin 100 μg/ml (Sigma P 4333). And Amphotericin-B 0.25 μg/ml (Sigma A 2942) was buffered with NaHCO3 (Sigma S 5761). About 5 to 7 worms were taken in a petridish, washed three times in medium, dissected into small pieces in 10 ml of medium under sterile conditions and incubated at 37° C. for 30 minutes to allow the release of embryonic stages (eggs and microfilariae) into the medium. The embryonic stages were harvested into sterile 15 ml. centrifuge tubes and washed three times by centrifuging at 300 g for 10 minutes each with medium and the final pellet was suspended in 1 ml. of RPMI-1640 medium (Sigma R 8005) supplemented with 10% FBS (Sigma F 2442) The number of embryonic stages of S. digitata in the above preparation were counted using light microscope, and the suspension was taken in RPMI-1640 medium containing 10% FBS at 1×10^5 embryonic stages/ml. One ml. each was dispensed into individual wells of a 24 well tissue culture plate. One set of wells was taken as untreated control containing only medium with 10% FBS. […] Motility of the Mf was scored under an inverted microscope. After appropriate treatment and incubation, each set of the cultured embryonic stages of S. digitata were harvested from the 24 well tissue culture plate separately in 15 ml. sterile centrifuge tubes, washed with PBS twice and stained as per requirement following manufacturer's instructions as described below. This was followed by two times washing with PBS and final suspension of the stained embryonic stages was taken in 0.5 ml of sheath fluid (BD Biosciences 342003) before their acquisition in the flow cytometer (BD FACS Calibur, Becten and Dickinson, USA). Analysis was performed on 10,000-acquired events depicted as Dot Plots and Histogram Plots using Cellquest Pro soft ware. All plots were representative of at least 3 experiments. The distinctly clustered populations obtained consistently in the Dot plots for the intra uterine embryonic stages of S. digitata (FIG. 1 a) were gated for Mfs (R-1) and eggs (R-2 and R-3) and analyzed for different assays for apoptosis as described below. The externalization of phosphatidyl serine was detected by staining the embryonic stages with Annexin-V-PE (BD Biosciences 556421) as per the instructions of the manufacturer. Briefly, the embryonic stages of S. digitata were subjected to various treatments in culture for 24 hrs. After the said period of incubation the embryonic stages were harvested, washed with ice cold PBS twice and resuspended in 100 μl of 1× Annexin-V binding buffer (BD Biosciences 556454) at 1×10^5 embryonic stages per ml. to which 5 μl of Annexin-V-PE was added. After 15 minutes of Incubation in dark at room temperature another 400 μl of 1× Annexin-V binding buffer was added to the above suspension. The resulting 500 μl suspension of Annexin-V-PE stained embryonic stages was then acquired and analyzed by flow cytometer.

[2] = tested on: embryonic stages of S. digitata; experiment: Intra cellular activation of caspase-3 like cysteine proteinases, anti active caspase-3-PE staining; format: cell-based, Setaria digitata; conditions: 24 hr
Experimental: Adult female filarial worms Setaria digitata were collected from the peritoneum of cattle, slaughtered at a nearby abattoir in sterile Hanks Balanced Salt Solution (HBSS) medium (Sigma H 2387-1L) and transported to the laboratory in a sterile container. The medium containing 1% glucose (Sigma G 7528), Penicillin 100 units/ml, Streptomycin 100 μg/ml (Sigma P 4333). And Amphotericin-B 0.25 μg/ml (Sigma A 2942) was buffered with NaHCO3 (Sigma S 5761). About 5 to 7 worms were taken in a petridish, washed three times in medium, dissected into small pieces in 10 ml of medium under sterile conditions and incubated at 37° C. for 30 minutes to allow the release of embryonic stages (eggs and microfilariae) into the medium. The embryonic stages were harvested into sterile 15 ml. centrifuge tubes and washed three times by centrifuging at 300 g for 10 minutes each with medium and the final pellet was suspended in 1 ml. of RPMI-1640 medium (Sigma R 8005) supplemented with 10% FBS (Sigma F 2442) The number of embryonic stages of S. digitata in the above preparation were counted using light microscope, and the suspension was taken in RPMI-1640 medium containing 10% FBS at 1×10^5 embryonic stages/ml. One ml. each was dispensed into individual wells of a 24 well tissue culture plate. One set of wells was taken as untreated control containing only medium with 10% FBS. […] Motility of the Mf was scored under an inverted microscope. After appropriate treatment and incubation, each set of the cultured embryonic stages of S. digitata were harvested from the 24 well tissue culture plate separately in 15 ml. sterile centrifuge tubes, washed with PBS twice and stained as per requirement following manufacturer's instructions as described below. This was followed by two times washing with PBS and final suspension of the stained embryonic stages was taken in 0.5 ml of sheath fluid (BD Biosciences 342003) before their acquisition in the flow cytometer (BD FACS Calibur, Becten and Dickinson, USA). Analysis was performed on 10,000-acquired events depicted as Dot Plots and Histogram Plots using Cellquest Pro soft ware. All plots were representative of at least 3 experiments. […] After in vitro culture for 24 hours with apoptosis inducing reagents the embryonic stages were harvested in 15 ml. sterile centrifuge tubes and fixed for 60 minutes at 0° C. in 1% paraformaldehyde (Sigma P 6148) in PBS. The suspension was washed first with PBS and then with 1× permeabilisation buffer (eBioscience 00-8333-56) and finally resuspended in 100 μl of 1× permeabilisation buffer at 1×10^5 embryonic stages per ml. This suspension was then incubated for 45 minutes with 20 μl of anti active caspase-3-PE (BD Biosciences 559762). This was followed by washing with PBS twice and analysis by Flow cytometer.

Row | Compound | GMI (Geometric Mean Intensity) of Fluorescence, Annexin-V-PE Staining ([1]; Eggs, 10 μM) | externalization of Phosphatidyl serine (result in words) [1] | GMI (Geometric Mean Intensity) of Fluorescence, Annexin-V-PE Staining ([1]; Microfilariae, 10 μM) | GMI (Geometric Mean Intensity) of Fluorescence, Caspase-3 Activation ([2]; Eggs, 10 μM) | GMI (Geometric Mean Intensity) of Fluorescence, Caspase-3 Activation ([2]; Microfilariae, 10 μM) | GMI (Geometric Mean Intensity) of Fluorescence, Annexin-V-PE Staining ([1]; Eggs, 1 μM) | GMI (Geometric Mean Intensity) of Fluorescence, Annexin-V-PE Staining ([1]; Microfilariae, 1 μM) | GMI (Geometric Mean Intensity) of Fluorescence, Caspase-3 Activation ([2]; Eggs, 1 μM) | GMI (Geometric Mean Intensity) of Fluorescence, Caspase-3 Activation ([2]; Microfilariae, 1 μM)
1 | OO [H2O2] | 30.95 and 33.55 and 35.75 | dose dependent externalization of Phosphatidyl serine was observed | 9.75 and 11.02 and 10.35 | 56.95 and 61.37 and 60.20 | 7.57 and 9.69 and 12.34 |  |  |  | 
2 | CC1=CC(=O)c2c(O)cccc2C1=O [Plumbagin] | 81.25 and 85.22 and 89.36 | dose dependent externalization of Phosphatidyl serine was observed | 11.95 and 12.52 and 13.56 | 82.35 and 87.32 and 80.16 | 10.57 and 11.22 and 14.16 |  |  |  | 
3 | CN[C@@H]1C[C@H]2O[C@@](C)([C@@H]1OC)n1c3ccccc3c3c4c(c5c6ccccc6n2c5c31)C(=O)NC4 [Staurosporine] |  | did not mediate such effects on Phosphatidyl serine externalization |  |  |  | 27.59 and 28.53 and 30.63 | 7.24 and 8.03 and 8.52 | 50.13 and 54.95 and 50.97 | 6.20 and 6.72
